# Patent publication US10059741B2 (priority 2015, dated 2018)
# “And” between values parts separate entries of the source, which are not always exact repeats. Identical values can stand only once. Bridge positions count the residues as written; N and C are the ends. Square brackets hold non-standard residues; d marks the D form. Peptide text beside a SMILES is read from it. S5 = C=CCCC[C@](C)(N)C(=O)O; Nle = CCCC[C@H](N)C(=O)O; Aib = CC(C)(N)C(=O)O
# Assays:
# [1] = Plasma PK in a cyno monkey, single subcutaneous dose
# [2] = system: Influenza A H3N2 Influenza A/Brisbane/10/2007; test: microbe, parasite or virus in culture; type: cell-based, influenza A virus
# H1N1 California/07/2009 = test: microbe, parasite or virus in culture; type: cell-based, influenza A virus
# [3] = system: Influenza B Brisbane/60/2008; test: Cytopathic effect (CPE) inhibition in MDCK cells, neutral red; type: cell-based; settings: read-out: EC50
# H7N9 A/Anhui/1/2013 = test: microbe, parasite or virus in culture; type: cell-based, influenza A virus; settings: read-out: EC50
# H3N2 Perth/16/2009 = test: microbe, parasite or virus in culture; type: cell-based, influenza A virus
# in vitro = settings: dog, CC50
# [4] = system: influenza virus, various viral strains; type: cell-based
# [5] = system: H1N1 A/Solomon Island/03/2006; type: cell-based, influenza A virus; settings: read-out: EC50
# [6] = system: Influenza A H1N1 Influenza A/Texas/4/2009; test: microbe, parasite or virus in culture; type: cell-based, influenza A virus
# [7] = system: H5N1 A/Hong Kong/213/2003; test: microbe, parasite or virus in culture; type: cell-based, influenza A virus; settings: read-out: EC50
# H5N1 A/Duck/MN/1525/81 = test: microbe, parasite or virus in culture; type: cell-based, influenza A virus; settings: read-out: EC50
# [8] = system: Influenza A H1N1 Influenza A/California/7/2009; test: microbe, parasite or virus in culture; type: cell-based, influenza A virus
# [9] = system: Influenza B/Brisbane/60/2008; test: microbe, parasite or virus in culture; type: cell-based
# [10] = system: Influenza B Florida/04/2006; test: Cytopathic effect (CPE) inhibition in MDCK cells, neutral red; type: cell-based; settings: read-out: EC50
# [11] = cynomolgus monkey, sc, 2.25 mg/kg
smiles,measurement,setting,value
"CCCC[C@H](NC(C)=O)C(=O)N[C@@H](CC(=O)O)C(=O)N[C@H](C(=O)N[C@@H](CC(N)=O)C(=O)N[C@@]1(C)CCCC=CCCC[C@@](C)(C(=O)N[C@@H](CC(C)C)C(=O)N[C@@H](CCCCN)C(=O)N[C@H](C(=O)NC(C)(C)C(=O)N[C@@H](C)C(=O)N[C@@H](CCC(N)=O)C(N)=O)C(C)C)NC(=O)[C@H](CC(C)C)NC(=O)[C@H](CC(C)C)NC(=O)[C@H]([C@@H](C)O)NC1=O)C(C)C [AP1, Ac-NleDVN$TLL$LKVAibAQ-NH2] (Ac-[Nle]DVN[S5]TLL[S5]LKV[Aib]AQ-NH2; staple 5-9)",time at which drug levels were measureable (last time point assessed),"[1]; cyno monkey, single subcutaneous dose 2.25 mg/kg",96 h
same,MRT,[1]; [11],21 h
same,half-life,[1]; [11],13 h
same,EC50,[2]; read-out: EC50,> 100 µM
same,EC90,[2]; read-out: EC90,> 100 µM
same,EC50,H1N1 California/07/2009; read-out: EC50,28 µM
same,EC90,H1N1 California/07/2009; read-out: EC90,> 65 µM
same,EC50,[3],6.9 µM
same,EC50,H7N9 A/Anhui/1/2013,> 100 µM
same,EC90,H3N2 Perth/16/2009,28 µM
same,EC50,H3N2 Perth/16/2009; read-out: EC50,12 µM
same,CC50,in vitro,> 100 µM
same,EC90,[4],> 100 µM
same,EC50,[5],3 µM and 1.8 µM
same,EC50,[6]; read-out: EC50,> 100 µM
same,EC90,[6]; read-out: EC90,> 100 µM
same,EC50,[7],> 100 µM
same,EC50,H5N1 A/Duck/MN/1525/81,6.3 µM and 6.4 µM
same,EC50,[8]; read-out: EC50,> 100 µM
same,EC90,[8]; read-out: EC90,> 100 µM
same,EC50,[9],> 100 µM
same,EC90,[9],> 100 µM
same,EC50,[10],11 µM
